Test results as given in patent US5324648A, “Substituted isocoumarins as serine protease inhibitors and anti-inflammatory agents” (Georgia Tech Research Corporation, priority 1992, dated 1994).
Read-outs that look alike come from different tables or passages of the source.

What was measured:
[1] = molecular target: T1, mouse granzyme A (Mus musculus, UniProt P11032); experiment: Inactivation rate of mouse granzyme A; assay type: biochemical; conditions: Table VII; pH 7.5, 25° C; [I] 0.4 to 45 μM; read-out: kobs/[I]
T1 construct: mouse cytotoxic lymphocyte granzyme A; endogenous in cells; host or cells: mouse cytotoxic lymphocytes
T1 sequence (P11032 29-260): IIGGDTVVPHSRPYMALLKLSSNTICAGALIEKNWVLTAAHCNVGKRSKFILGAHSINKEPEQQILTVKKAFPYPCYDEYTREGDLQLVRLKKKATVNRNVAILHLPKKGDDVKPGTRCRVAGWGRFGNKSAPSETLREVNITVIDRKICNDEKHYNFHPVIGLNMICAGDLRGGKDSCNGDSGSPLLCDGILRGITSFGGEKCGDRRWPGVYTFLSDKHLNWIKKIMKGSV
Procedure: (§1) Inactivation rates of serine proteases by substituted isocoumarins were measured by the incubation method. An aliquot of inhibitor (25 or 50 μl) in Me2 SO was added to a buffered enzyme solution (0.01-2.3 μM) to initiate the inactivation. Aliquots (50 μl) were withdrawn at various intervals and the residual enzymatic activity was measured. Me2 SO concentration in the reaction mixture was 8-12% (v/v). 0.1 Hepes, 0.01M CaCl2, pH 7.5 buffer was utilized for trypsin and coagulation enzymes. 0.1M Hepes, 0.5M NaCl, pH 7.5 was utilized for other serine proteases. The inhibitor concentrations are shown in all the tables. Peptide thioesters or peptide nitroanilides with appropriate sequence were used as substrates for various serine proteases. All peptide thioester hydrolysis rates were measured with assay mixtures containing 4,4'-dithiodipyridine (ε324 =19800M^-1 cm^-1; Grasetti & Murray, Arch. Biochem. Biophys. 119, pp 41-49 (1967)). Peptide 4-nitroanilide nitroanilide hydrolysis was measured at 410 nm (ε410 =8800M^-1 cm^-1; Erlanger et al., Arch. Biochem. Biophys. 95, pp 271-278 (1961)). First order inactivation rate constant (kobs) were obtained from plots of ln (vt /vo) vs time, and the correlation coefficients were greater than 0.98.
(§2) ^a Inactivation rates were measured at 0.1M Hepes, 0.01M CaCl2,
(§3) pH 7.5, 8% Me2 SO and 25° C. by incubation method. ZArg-SBzl
(§4) (74-85 μM) was used as the substrate to monitor the residual enzymatic

[2] = test system: T2, human Q-31 tryptase (Homo sapiens); experiment: Inactivation rate of human Q-31 tryptase; assay type: biochemical; conditions: Table VII; pH 7.5, 25° C; [I] 3 to 500 μM; read-out: kobs/[I]
T2 construct: human cytotoxic lymphocyte Q31 tryptase; endogenous in cells; host or cells: human cytotoxic lymphocyte Q31
Procedure: as §1, §2, §3, §4

[3] = Prothrombin time (PT), human plasma
[4] = molecular target: T3, human factor XIa (Homo sapiens, UniProt P03951); experiment: Inactivation rate of human factor XIa; assay type: biochemical; conditions: pH 7.5, 25° C, read-out: kobs/[I]
T3 construct: human factor XIa
Procedure: as §1
^a Conditions were as 0.1M Hepes, 0.01M CaCl2, pH 7.5 and 8-12%
Me2 SO and 25° C. Rate constants were measured by incubation
method unless otherwise noted. An aliquot of inhibitor was added to an
enzyme solution and aliquots removed with time and assayed for remaining
enzymatic activity. Firstorder rate constants, kobs were obtained
from the plots of ln(vt /vo) versus time.
^a Inhibition rates were measured in 0.1M Hepes, 0.01M CaCl2, pH
7.5 buffer, 8% Me2 SO and at 25° C.

[5] = molecular target: T4, bovine trypsin (Bos taurus, UniProt P00760); experiment: Inactivation rate of bovine trypsin; assay type: biochemical; conditions: read-out: kobs/[I]
T4 sequence (P00760 24-246): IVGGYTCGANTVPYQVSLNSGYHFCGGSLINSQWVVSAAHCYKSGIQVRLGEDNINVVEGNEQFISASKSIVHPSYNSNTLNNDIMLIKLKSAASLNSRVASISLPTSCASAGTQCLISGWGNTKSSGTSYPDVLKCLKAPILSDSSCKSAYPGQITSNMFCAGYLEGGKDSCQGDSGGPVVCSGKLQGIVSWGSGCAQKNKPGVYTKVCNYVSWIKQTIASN
Summary of the method: (§5)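 Incubation method: isocoumarin in Me2SO added to enzyme (0.01-2.3 μM) in 0.1M Hepes, 0.01M CaCl2, pH 7.5, 8-12% Me2SO, 25° C. Residual activity sampled over time with peptide thioester (4,4'-dithiodipyridine) or 4-nitroanilide (410 nm) substrates. kobs taken from ln(vt/vo) vs time.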

[6] = molecular target: T5, porcine pancreatic kallikrein (Sus scrofa, UniProt P00752); experiment: Inactivation rate of porcine pancreatic kallikrein; assay type: biochemical; conditions: Table I, read-out: kobs/[I]
T5 construct: from tissue; host or cells: porcine pancreas (from the name)

[7] = molecular target: T6, human factor XIIa (Homo sapiens, UniProt P00748); experiment: Inactivation rate of human factor XIIa; assay type: biochemical; conditions: pH 7.5, 25° C, read-out: kobs/[I]
T6 construct: human factor XIIa
T6 sequence (P00748 373-615 limits assumed): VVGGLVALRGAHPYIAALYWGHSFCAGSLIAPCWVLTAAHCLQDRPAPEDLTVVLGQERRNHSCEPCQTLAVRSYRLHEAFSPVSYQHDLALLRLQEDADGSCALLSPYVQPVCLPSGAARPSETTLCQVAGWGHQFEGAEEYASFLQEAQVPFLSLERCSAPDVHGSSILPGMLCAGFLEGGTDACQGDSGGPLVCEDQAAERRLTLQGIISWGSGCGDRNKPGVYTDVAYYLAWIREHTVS
T6 sequence (P00748 20-372 partner limits assumed): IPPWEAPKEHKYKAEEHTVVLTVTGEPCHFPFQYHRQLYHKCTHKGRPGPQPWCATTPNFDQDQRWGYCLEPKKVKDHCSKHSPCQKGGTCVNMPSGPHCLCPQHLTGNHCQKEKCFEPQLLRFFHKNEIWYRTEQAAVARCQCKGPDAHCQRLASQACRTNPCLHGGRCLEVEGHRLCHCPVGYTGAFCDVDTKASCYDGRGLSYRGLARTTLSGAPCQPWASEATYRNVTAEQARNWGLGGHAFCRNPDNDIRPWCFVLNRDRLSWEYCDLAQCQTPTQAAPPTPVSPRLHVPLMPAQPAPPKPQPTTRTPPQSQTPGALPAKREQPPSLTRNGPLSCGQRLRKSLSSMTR
Summary of the method: as §5

[8] = molecular target: T7, porcine pancreatic elastase (PPE) (Sus scrofa, UniProt P00772); experiment: Inactivation of porcine pancreatic elastase (PPE); assay type: biochemical; conditions: pH 7.5, 25° C, read-out: kobs/[I]
T7 construct: from tissue; host or cells: porcine pancreas (from the name)

[9] = Table I, pH 7.5, 25° C, [I] 1 to 12 μM
[10] = pH 7.5, 25° C, [I] 0.4 to 300 μM
[11] = pH 7.5, Table I, progress curve method
[12] = pH 7.5, same concentration of enzyme and inhibitor
[13] = pH 7.5, Table I, same concentration of enzyme and inhibitor

T7 sequence (P00772 27-266): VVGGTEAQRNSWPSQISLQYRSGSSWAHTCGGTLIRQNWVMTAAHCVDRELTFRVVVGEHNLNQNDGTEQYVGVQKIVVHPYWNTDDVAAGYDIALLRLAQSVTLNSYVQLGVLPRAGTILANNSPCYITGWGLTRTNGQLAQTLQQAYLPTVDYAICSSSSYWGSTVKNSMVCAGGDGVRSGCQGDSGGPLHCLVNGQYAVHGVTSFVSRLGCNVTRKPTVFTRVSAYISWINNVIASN
T2 sequence (P12544 29-262): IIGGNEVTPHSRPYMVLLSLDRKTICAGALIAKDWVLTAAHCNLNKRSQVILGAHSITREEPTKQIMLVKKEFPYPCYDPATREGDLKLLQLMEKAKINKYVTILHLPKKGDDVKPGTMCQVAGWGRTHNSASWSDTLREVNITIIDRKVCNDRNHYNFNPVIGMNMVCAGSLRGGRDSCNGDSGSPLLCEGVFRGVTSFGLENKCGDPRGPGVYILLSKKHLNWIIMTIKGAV
T3 sequence (P03951 388-625 limits assumed): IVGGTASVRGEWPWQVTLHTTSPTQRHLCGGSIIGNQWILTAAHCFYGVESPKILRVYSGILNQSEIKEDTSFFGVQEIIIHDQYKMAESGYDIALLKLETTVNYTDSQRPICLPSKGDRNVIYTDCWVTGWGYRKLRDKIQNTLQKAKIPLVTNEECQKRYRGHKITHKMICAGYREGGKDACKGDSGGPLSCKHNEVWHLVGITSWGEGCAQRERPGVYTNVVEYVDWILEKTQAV
T3 sequence (P03951 19-387 partner limits assumed): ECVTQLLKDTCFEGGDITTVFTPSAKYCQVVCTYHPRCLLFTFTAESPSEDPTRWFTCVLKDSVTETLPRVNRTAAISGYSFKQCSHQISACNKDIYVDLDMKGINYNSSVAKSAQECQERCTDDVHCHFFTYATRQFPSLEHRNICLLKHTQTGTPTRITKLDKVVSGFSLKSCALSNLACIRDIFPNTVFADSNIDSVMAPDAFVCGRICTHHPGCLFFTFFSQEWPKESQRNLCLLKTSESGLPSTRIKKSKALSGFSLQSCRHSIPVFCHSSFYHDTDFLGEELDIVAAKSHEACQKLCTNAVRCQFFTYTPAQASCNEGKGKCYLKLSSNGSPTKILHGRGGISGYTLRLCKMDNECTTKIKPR
T5 sequence (P00752 8-246): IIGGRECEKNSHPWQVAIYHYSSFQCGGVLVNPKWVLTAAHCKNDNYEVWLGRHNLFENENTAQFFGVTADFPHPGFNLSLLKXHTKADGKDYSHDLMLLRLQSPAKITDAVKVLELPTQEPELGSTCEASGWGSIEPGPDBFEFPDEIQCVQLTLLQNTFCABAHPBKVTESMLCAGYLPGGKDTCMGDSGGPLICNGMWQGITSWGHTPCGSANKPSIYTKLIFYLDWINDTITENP

Row | SMILES | kinact/KI [1] [M⁻¹ s⁻¹] | kinact/KI [2] [M⁻¹ s⁻¹] | kinact/KI ([4]; Table I, [I] 3 to 330 μM) [M⁻¹ s⁻¹] | kinact/KI [5, 9] [M⁻¹ s⁻¹] | kinact/KI [6, 10] [M⁻¹ s⁻¹] | kinact/KI ([7]; Table I, [I] 3 to 330 μM) [M⁻¹ s⁻¹] | kinact/KI ([8]; Table IV, [I] 0.01 to 0.51 mM) [M⁻¹ s⁻¹] | kinact/KI [6, 12] [M⁻¹ s⁻¹] | further results
1 | O=c1oc(Cl)c(Cl)c2ccccc12 [3,4-dichloroisocoumarin, reference compound] | 50 | 29 | – | – | – | – | – | – | PT ([3]; [I] 33 μM): 12.4 s
2 | N=C(N)SCCOc1oc(=O)c2ccccc2c1Cl [3-(2-isothiureidoethoxy)-4-chloroisocoumarin] | – | – | 44000 | 32000 | 12000 | 39000 | 270 | – | –
3 | NCCCOc1oc(=O)c2ccccc2c1Cl [3-(3-aminopropoxy)-4-chloroisocoumarin] | 770 | – | 380 | 7600 | 860 | 190 | 70 | – | –
4 | N=C(N)SCCCOc1oc(=O)c2ccccc2c1Cl [3-(3-isothiureidopropoxy)-4-chloroisocoumarin] | 17500 | 12800 | 47000 | 46000 | 19000 | 27000 | 70 | – | PT ([3]; [I] 31 μM): 12.3 s
5 | N=C(N)SCCCOc1oc(=O)c2cc(N)ccc2c1Cl [7-amino-4-chloro-3-(3-isothiureidopropoxy)isocoumarin] | 3000 | 1960 | 22000 | – | – | 6200 | 1 | > 110000 | kinact/KI [5, 11]: 410000 M⁻¹ s⁻¹; PT ([3]; [I] 29 μM): 19.4 s
6 | CCOc1oc(=O)c2cc(NC(=N)N)ccc2c1Cl [7-guanidino-3-ethoxy-4-chloroisocoumarin, 7-guanidino-4-chloro-3-ethoxyisocoumarin] | 26200 | 6180 | 60000 | – | – | 22000 | 2300 | > 200000 | kinact/KI [5, 13]: > 110000 M⁻¹ s⁻¹; PT ([3]; [I] 21 μM): 22.4 s; PT ([3]; [I] 53 μM): 31.4 s; PT ([3]; [I] 75 μM): 44.2 s; PT ([3]; [I] 107 μM): 80 s
7 | COc1cc2ccc(NC(=N)N)cc2c(=O)o1 [7-guanidino-3-methoxyisocoumarin] | – | – | 1400 | 3300 | 1900 | 520 | 55 | – | –
8 | N=C(N)Nc1ccc2c(Cl)c(OCCc3ccccc3)oc(=O)c2c1 [7-guanidino-4-chloro-3-(2-phenylethoxy)isocoumarin] | 6400 | 1880 | 20000 | – | – | 26000 | 5.7 | 200000 | kinact/KI [5, 13]: > 110000 M⁻¹ s⁻¹; PT ([3]; [I] 27 μM): 13.0 s
9 | COc1oc(=O)c2cc(NC(=N)N)ccc2c1Cl [7-guanidino-4-chloro-3-methoxyisocoumarin] | 15000 | 6620 | 36200 | – | – | 20000 | 860 | – | kinact/KI [5, 11]: 310000 M⁻¹ s⁻¹; kinact/KI ([6]; pH 7.5, progress curve method): 45000 M⁻¹ s⁻¹; PT ([3]; [I] 21 μM): 16.5 s
10 | N=C(N)SCCOc1oc(=O)c2cc(NC(=O)Nc3ccccc3)ccc2c1Cl [PhNHCONH-CiTEtOIC, 7-(phenylcarbamoylamino)-4-chloro-3-(2-isothiureidoethoxy)isocoumarin] | – | – | – | – | – | – | – | – | kinact/KI ([4]; Table VIII, [I] 0.7-0.8 μM): 104000 M⁻¹ s⁻¹; kinact/KI ([5]; Table VIII, pH 7.5, 25° C, [I] 1.1-4.6 μM): 21000 M⁻¹ s⁻¹; kinact/KI ([7]; Table VIII, [I] 3.6-4.9 μM): 50000 M⁻¹ s⁻¹; kinact/KI ([8]; Table X, [I] 33-46 μM): 840 M⁻¹ s⁻¹
